These results are taken from ChEMBL document CHEMBL1145252, “Macrolactonization catalyzed by the terminal thioesterase domain of the nonribosomal peptide synthetase responsible for lichenysin biosynthesis” (Bioorg Med Chem Lett, 2005).

In general, Km refers to the concentration of substrate that gives half-maximal velocity.

Experiment [1] in a line: Michaelis-Menten constant for the hydrolysis of the lipopeptide SNAC by the licC thioesterase.
A short description of experiment [2]: Michaelis-Menten constant for the cyclization of the lipopeptide SNAC by the licC thioesterase.
A short description of experiment [3]: Catalytic activity for the hydrolysis of the lipopeptide SNAC by the thioesterase.
Experiment [4] can be described thus: Catalytic activity for the cyclization of the lipopeptide SNAC by the surfactin thioesterase.
Experiment [5] can be described thus: Michaelis-Menten constant for the cyclization of the lipopeptide SNAC by the licC thioesterase; nd = not determined.
Experiment [6] in a line: Catalytic activity for the hydrolysis of the lipopeptide SNAC by the licC thioesterase.
The nature of experiment [7]: Ratio of Michaelis-Menten constant to that of catalytic activity by the licC thioesterase.

Regarding `CC[C@H](C)[C@H](NC(=O)[C@@H](CC(C)C)NC(=O)[C@H](CC(=O)O)NC(=O)[C@@H](NC(=O)[C@@H](CC(C)C)NC(=O)[C@H](C)NC(=O)[C@H](CCC(N)=O)NC(=O)C[C@@H](C)O)C(C)C)C(=O)SCCNC(C)=O`, the Km in experiment [1] came out at 16.9 µM; in experiment [2], 15.2 µM.

For the molecule `CC[C@H](C)[C@H](NC(=O)[C@@H](CC(C)C)NC(=O)[C@H](CC(=O)O)NC(=O)[C@@H](NC(=O)[C@@H](CC(C)C)NC(=O)[C@H](CC(C)C)NC(=O)[C@H](CCC(N)=O)NC(=O)C[C@@H](C)O)C(C)C)C(=O)SCCNC(C)=O`, the K cat came to 1.57 s⁻¹ in experiment [3] and 1.77 s⁻¹ in experiment [4]. Further, the Michaelis constant (Km) is 8.13 µM in experiment [1] and 6.83 µM in experiment [2].

As for `CC[C@H](C)[C@H](NC(=O)[C@@H](C)NC(=O)[C@H](CC(=O)O)NC(=O)[C@@H](NC(=O)[C@@H](CC(C)C)NC(=O)[C@H](CC(C)C)NC(=O)[C@H](CCC(N)=O)NC(=O)C[C@@H](C)O)C(C)C)C(=O)SCCNC(C)=O`, the Km in experiment [1] came to 263 µM; in experiment [2] it was 257 µM.

As for `CC[C@H](C)[C@H](NC(=O)[C@@H](CC(C)C)NC(=O)[C@H](CC(=O)O)NC(=O)[C@@H](NC(=O)[C@@H](CC(C)C)NC(=O)[C@H](CC(C)C)NC(=O)[C@H](CCC(N)=O)NC(=O)CCN)C(C)C)C(=O)SCCNC(C)=O`, the Km result is “Not detected” in experiment [5] and 9.41 µM in experiment [1]. Further, in experiment [6], the K cat worked out at 2.71 s⁻¹. In addition, the Ratio in experiment [7] amounted to 17.3.

Turning to `CC(=O)NCCSC(=O)[C@H](C)NC(=O)[C@@H](CC(C)C)NC(=O)[C@H](CC(=O)O)NC(=O)[C@@H](NC(=O)[C@@H](CC(C)C)NC(=O)[C@H](CC(C)C)NC(=O)[C@H](CCC(N)=O)NC(=O)C[C@@H](C)O)C(C)C`, the Km in experiment [1] is 191 µM.

For the molecule `CC[C@H](C)[C@H](NC(=O)[C@@H](CC(C)C)NC(=O)[C@H](CC(=O)O)NC(=O)[C@H](C)NC(=O)[C@@H](CC(C)C)NC(=O)[C@H](CC(C)C)NC(=O)[C@H](CCC(N)=O)NC(=O)C[C@@H](C)O)C(=O)SCCNC(C)=O`, the values for the Km in experiment [1] and in experiment [2] were 8.05 µM and 9.35 µM, respectively.

Turning to `CC[C@H](C)[C@H](NC(=O)[C@@H](CC(C)C)NC(=O)[C@H](CC(=O)O)NC(=O)[C@@H](NC(=O)[C@@H](C)NC(=O)[C@H](CC(C)C)NC(=O)[C@H](CCC(N)=O)NC(=O)C[C@@H](C)O)C(C)C)C(=O)SCCNC(C)=O`, the Michaelis constant (Km) in experiment [1] is 4.86 µM; in experiment [2], 5.1 µM.

As for `CC[C@H](C)[C@H](NC(=O)[C@@H](CC(C)C)NC(=O)[C@H](C)NC(=O)[C@@H](NC(=O)[C@@H](CC(C)C)NC(=O)[C@H](CC(C)C)NC(=O)[C@H](CCC(N)=O)NC(=O)C[C@@H](C)O)C(C)C)C(=O)SCCNC(C)=O`, the Km in experiment [1] is 8.17 µM.

Regarding `CC[C@H](C)[C@H](NC(=O)[C@@H](CC(C)C)NC(=O)[C@H](CC(=O)O)NC(=O)[C@@H](NC(=O)[C@@H](CC(C)C)NC(=O)[C@H](CC(C)C)NC(=O)[C@H](C)NC(=O)C[C@@H](C)O)C(C)C)C(=O)SCCNC(C)=O`, the Michaelis-Menten constant (Km) in experiment [1] stood at 29 µM; in experiment [2], 29.9 µM.

On to `CC[C@H](C)[C@H](NC(=O)[C@@H](CC(C)C)NC(=O)[C@H](CC(=O)O)NC(=O)[C@@H](NC(=O)[C@@H](CC(C)C)NC(=O)[C@H](CC(C)C)NC(=O)[C@H](CCC(N)=O)NC(=O)C[C@H](C)O)C(C)C)C(=O)SCCNC(C)=O`, for which the Km result was “Not detected” in experiment [5] and 12 µM in experiment [1]. Besides, the K cat in experiment [6] came out at 3.89 s⁻¹. In addition, in experiment [7], the Ratio is 19.5.
